Test: pH stability of triketide lactones in fermentation supernatant
Type: physicochemical
Conditions: pH values above 6–8 (FIG. 1)
Description: Samples were centrifuged to remove cells and insoluble media components. If necessary, supernatants were diluted in 1:1 acetonitrile-water with 0.1% acetic acid. Samples were analyzed by HPLC-MS/MS, quantitating by comparison with an internal analytical standard of 2,4-dimethyl-3-hydroxyoctanoic acid δ-lactone (“P-TKL”). In cases where the purity of the analytic standard was doubtful, titers were renorted as arbitrary units. Samples were injected onto a C18 reversed-phase HPLC column and eluted with a gradient of acetonitrile in water containing 0.1% formic acid. Triketide lactones were detected using multiple reaction monitoring of the following MS/MS transitions: TKL: m/z 173 to 109; CM-TKL: m/z 193 to 119; V-TKL: m/z 171 to 107; and P-TKL: m/z 181 to 123.
To test the stability of CM-TKL and V-TKL in fermentation supernatant, the following experiment was undertaken. Supernatant from flask cultures was collected at the end of an experiment by centrifugation at 2700×g for 20 minutes. The supernatant was divided into four portions. The pH of the control portion was adjusted to 3.5, and that sample was frozen at −20° C. […] The samples were incubated for 18 hours at 30° C. then analyzed for product as described previously with the data reported as percent of the control.

Compound | stability in fermentation broth
C[C@@H]1[C@H](O)[C@@H](C)C(=O)O[C@@H]1CCl [CM-TKL] | unstable
C=C[C@H]1OC(=O)[C@H](C)[C@@H](O)[C@H]1C [V-TKL] | unstable
